Results on eight molecules are retold here after ChEMBL document CHEMBL1275256, “Contribution of a plasmid-borne blaOXA-58 gene with its hybrid promoter provided by IS1006 and an ISAba3-like element to beta-lactam resistance in acinetobacter genomic species 13TU” (2010).

Holding throughout (type): functional
A short description of assay [1]: Antimicrobial activity against Acinetobacter genomic species 13TU by agar dilution method. To be noted: Acinetobacter nosocomialis.
A short description of assay [2]: Antimicrobial activity against Acinetobacter genomic species 13TU ATCC 17903 harboring pOXA-58-6 plasmid by agar dilution method. As to conditions: Acinetobacter nosocomialis. For orientation: In agar dilution the substance is mixed into plates at graded concentrations.
Assay [3] can be described thus: Antimicrobial activity against Acinetobacter genomic species 13TU ATCC 17903 harboring pYMAb3 plasmid by agar dilution method. As to conditions: Acinetobacter nosocomialis.
A short description of assay [4]: Antimicrobial activity against Acinetobacter genomic species 13TU ATCC 17903 by agar dilution method. As to conditions: Acinetobacter nosocomialis.
A short description of assay [5]: Antimicrobial activity against Acinetobacter genomic species 13TU ATCC 17903 harboring pOXA-58-7 plasmid by agar dilution method. As to conditions: Acinetobacter nosocomialis.
Assay [6] is described as follows: Antimicrobial activity against Acinetobacter genomic species 13TU ATCC 17903 harboring pOXA-58-5 plasmid by agar dilution method. As to conditions: Acinetobacter nosocomialis.
The nature of assay [7]: Antimicrobial activity against Acinetobacter genomic species 13TU ATCC 17903 harboring pYMAb3 plasmid by Vitek II system. As to conditions: Acinetobacter nosocomialis.
The nature of assay [8]: Antimicrobial activity against Acinetobacter genomic species 13TU ATCC 17903 harboring pOXA-58-6 plasmid by Vitek II system. To be noted: Acinetobacter nosocomialis.
Assay [9] can be described thus: Antimicrobial activity against Acinetobacter genomic species 13TU by Vitek II system. To be noted: Acinetobacter nosocomialis.
Assay [10] is described as follows: Antimicrobial activity against Acinetobacter genomic species 13TU ATCC 17903 harboring pOXA-58-5 plasmid by Vitek II system. To be noted: Acinetobacter nosocomialis.
Assay [11] in a line: Antimicrobial activity against Acinetobacter genomic species 13TU ATCC 17903 by Vitek II system. As to conditions: Acinetobacter nosocomialis.
Assay [12] in a line: Antimicrobial activity against Acinetobacter genomic species 13TU ATCC 17903 harboring pOXA-58-7 plasmid by Vitek II system. To be noted: Acinetobacter nosocomialis.
Assay [13] concerns Acinetobacter nosocomialis. In words: Antimicrobial activity against Acinetobacter genomic species 13TU ATCC 17903 harboring pOXA-58-5 plasmid by Etest method.
Assay [14] has as its system Acinetobacter nosocomialis. In words: Antimicrobial activity against Acinetobacter genomic species 13TU ATCC 17903 harboring pOXA-58-6 plasmid by Etest method.
Assay [15] in a line: Antimicrobial activity against Acinetobacter genomic species 13TU ATCC 17903 by Vitek II system in presence of Tazobactam. As to conditions: Acinetobacter nosocomialis.
The nature of assay [16]: Antimicrobial activity against Acinetobacter genomic species 13TU by Vitek II system in presence of Tazobactam. To be noted: Acinetobacter nosocomialis.
A short description of assay [17]: Antimicrobial activity against Acinetobacter genomic species 13TU ATCC 17903 harboring pOXA-58-5 plasmid by Vitek II system in presence of Tazobactam. As to conditions: Acinetobacter nosocomialis.

Converted amounts (≈) assume the structure as drawn. The source made the active and inactive calls. No cut-off for these calls is given here.

For orientation: MIC means the lowest concentration found to suppress growth. Take `CC1(C)S[C@@H]2[C@H](NC(=O)[C@H](N)c3ccc(O)cc3)C(=O)N2[C@H]1C(=O)O` [AMOXICILLIN]: the MIC was greater than 1020 µg/mL in assay [1]; greater than 1020 µg/mL in [2]; 64 µg/mL (≈ 175 µM) in assay [3]; 64 µg/mL (≈ 175 µM) in assay [4]; 256 µg/mL (≈ 701 µM) in assay [5]; greater than 1020 µg/mL in assay [6].

As to `CO/N=C(\C(=O)N[C@@H]1C(=O)N2C(C(=O)[O-])=C(C[N+]3(C)CCCC3)CS[C@H]12)c1csc(N)n1` [CEFEPIME], the MIC in assay [1] was determined as 128 µg/mL (≈ 266 µM); in assay [2] it was 2 µg/mL (≈ 4.16 µM); in assay [3] it was 2 µg/mL (≈ 4.16 µM); in [4], 2 µg/mL (≈ 4.16 µM); in [6], 4 µg/mL (≈ 8.32 µM).

Turning to `CC(C)(O/N=C(\C(=O)N[C@@H]1C(=O)N2C(C(=O)[O-])=C(C[n+]3ccccc3)CS[C@H]12)c1csc(N)n1)C(=O)O` [CEFTAZIDIME], the MIC in [1] was found to be 16 µg/mL (≈ 29.3 µM); in assay [2] it was 4 µg/mL (≈ 7.32 µM); in [3], 4 µg/mL (≈ 7.32 µM); in assay [4] it was 4 µg/mL (≈ 7.32 µM); in assay [5], 4 µg/mL (≈ 7.32 µM); in assay [6], 4 µg/mL (≈ 7.32 µM).

Consider `CO/N=C(\C(=O)N[C@@H]1C(=O)N2C(C(=O)O)=C(COC(N)=O)CS[C@H]12)c1ccco1` [CEFUROXIME], for which the MIC in assay [7] was 16 µg/mL (≈ 37.7 µM); in [8], 16 µg/mL (≈ 37.7 µM); in assay [9], no less than 64 µg/mL; in [10] it was no less than 64 µg/mL; in assay [11], 16 µg/mL (≈ 37.7 µM); in assay [12], 16 µg/mL (≈ 37.7 µM).

On to `C[C@@H](O)[C@H]1C(=O)N2C(C(=O)O)=C(SCCNC=N)C[C@H]12` [IMIPENEM ANHYDROUS], for which the MIC came to 16 µg/mL (≈ 53.4 µM) in assay [1]; 16 µg/mL (≈ 53.4 µM) in assay [2]; 0.25 µg/mL (≈ 0.835 µM) in assay [3]; 0.25 µg/mL (≈ 0.835 µM) in [4]; 0.5 µg/mL (≈ 1.67 µM) in assay [5]; 32 µg/mL (≈ 107 µM) in assay [6]. Moreover, the result in assay [13] was inactive.

As for `C[C@@H](O)[C@H]1C(=O)N2C(C(=O)O)=C(S[C@@H]3CN[C@H](C(=O)N(C)C)C3)[C@H](C)[C@H]12` [MEROPENEM], the MIC in assay [1] came out at 8 µg/mL (≈ 20.9 µM); in [2], 8 µg/mL (≈ 20.9 µM); in assay [3] it was 0.5 µg/mL (≈ 1.3 µM); in [4], 0.5 µg/mL (≈ 1.3 µM); in assay [5], 0.5 µg/mL (≈ 1.3 µM); in [6], 16 µg/mL (≈ 41.7 µM). Besides, the result in [14] was inactive.

For the molecule `CCN1CCN(C(=O)N[C@@H](C(=O)N[C@@H]2C(=O)N3[C@@H]2SC(C)(C)[C@@H]3C(=O)O)c2ccccc2)C(=O)C1=O` [PIPERACILLIN], the MIC in assay [1] is greater than 1020 µg/mL; in assay [15], no more than 4 µg/mL; in [2], 512 µg/mL (≈ 989 µM); in assay [3], 16 µg/mL (≈ 30.9 µM); in assay [4], 16 µg/mL (≈ 30.9 µM); in [16] it was no less than 128 µg/mL. In addition, the values for the MIC in [5], in assay [6] and in [17] were 32 µg/mL (≈ 61.8 µM), greater than 1020 µg/mL and no less than 128 µg/mL, respectively.

On to `CC1(C)S[C@@H]2[C@H](NC(=O)[C@H](C(=O)O)c3ccsc3)C(=O)N2[C@H]1C(=O)O` [TICARCILLIN], for which the MIC in assay [1] was greater than 1020 µg/mL; in assay [2], greater than 1020 µg/mL; in assay [3], 16 µg/mL (≈ 41.6 µM); in [4], 16 µg/mL (≈ 41.6 µM); in [5] it was 256 µg/mL (≈ 666 µM); in assay [6] it was greater than 1020 µg/mL.
